# Measurements published in ChEMBL document CHEMBL6087436, “The novel β-hairpin antimicrobial peptide D-G(RF)3 demonstrates exceptional antibacterial efficacy” (Eur J Med Chem, 2025).
# Calls of active or inactive are those of the source. No cut-off for these calls is given here. Where a SMILES comes first, the peptide text is derived from it. Bridges are numbered along the chain shown (N, C = ends). [ ]: non-standard residue; d: D form. The star is where a group is joined. Ileψ(thiazoline)Cys = CC[C@H](C)[C@H](N)C1=N[C@H](C(=O)*)CS1; dOrn = NCCC[C@@H](N)C(=O)O
# What was measured:
# Pseudomonas aeruginosa [1] = experiment: Antibacterial activity against Pseudomonas aeruginosa ATCC 27853 assessed as inhibition of bacterial growth incubated for 18 hrs by microbroth dilution assay; format: functional
# [2] = tested on: Staphylococcus epidermidis; experiment: Antibacterial activity against Staphylococcus epidermidis ATCC 12228 assessed as inhibition of bacterial growth incubated for 18 hrs by microbroth dilution assay; format: functional
# Escherichia coli = experiment: Antibacterial activity against Escherichia coli ATCC 25922 assessed as inhibition of bacterial growth incubated for 18 hrs by microbroth dilution assay; format: functional
# Klebsiella pneumoniae = experiment: Antibacterial activity against Klebsiella pneumoniae ATCC 700603 assessed as inhibition of bacterial growth incubated for 18 hrs by microbroth dilution assay; format: functional
# Bacillus subtilis = experiment: Antibacterial activity against Bacillus subtilis ATCC 23857 assessed as inhibition of bacterial growth incubated for 18 hrs by microbroth dilution assay; format: functional
# Staphylococcus aureus = experiment: Antibacterial activity against Staphylococcus aureus ATCC 25923 assessed as inhibition of bacterial growth incubated for 18 hrs by microbroth dilution assay; format: functional
# [3] = Retention time of the compound by RP-HPLC analysis; format: physicochemical
# [4] = Hemolytic activity in Kunming mouse erythrocytes assessed as hemolysis incubated for 1 hr by multimode reader analysis; format: toxicity, cell-based; details: erythrocyte
# Pseudomonas aeruginosa [5] = experiment: Induction of drug resistance in Pseudomonas aeruginosa ATCC 27853 assessed as fold increase in MIC incubated for 24 hrs and measured under 40 passages; format: functional
# Cell membrane [6] = experiment: Induction of cell membrane permeability in Staphylococcus aureus assessed as bacterial dissolve at 2 times MIC by SEM analysis; format: subcellular
# [7] = Hemolytic activity in Kunming mouse erythrocytes assessed as hemolytic rate at 256 uM incubated for 1 hr by multimode reader analysis relative to control; format: toxicity, cell-based, Erythrocyte; details: read-out: Activity
# Cell membrane [8] = experiment: Induction of Cytoplasmic membrane depolarization in Staphylococcus aureus at 3.75 uM measured for every 10 mins by DiSC3(5) dye based fluorescence method
smiles,measurement,setting,value
CC[C@H](C)[C@H](N)C1=N[C@H](C(=O)N[C@@H](CC(C)C)C(=O)N[C@H](CCC(=O)O)C(=O)N[C@H](C(=O)N[C@H]2CCCCNC(=O)[C@H](CC(N)=O)NC(=O)[C@@H](CC(=O)O)NC(=O)[C@H](Cc3cnc[nH]3)NC(=O)[C@@H](Cc3ccccc3)NC(=O)[C@H]([C@@H](C)CC)NC(=O)[C@@H](CCCN)NC2=O)[C@@H](C)CC)CS1 [BACITRACIN] ({Ileψ(thiazoline)Cys}-L[dE]IK[dOrn]I[dF]H[dD]N; lactam 4-C),MIC,Pseudomonas aeruginosa [1],> 128 µM
same,MIC,[2],16 µM
same,MIC,Escherichia coli,> 128 µM
same,MIC,Klebsiella pneumoniae,> 128 µM
same,MIC,Bacillus subtilis,> 128 µM
same,MIC,Staphylococcus aureus,32 µM
N=C(N)NCCC[C@H](NC(=O)[C@H](Cc1ccccc1)NC(=O)[C@H](CCCNC(=N)N)NC(=O)[C@H](Cc1ccccc1)NC(=O)[C@H](CCCNC(=N)N)NC(=O)CNC(=O)[C@H]1CCCN1C(=O)[C@H](CCCNC(=N)N)NC(=O)[C@H](Cc1ccccc1)NC(=O)[C@H](CCCNC(=N)N)NC(=O)[C@H](Cc1ccccc1)NC(=O)[C@@H](N)CCCNC(=N)N)C(N)=O,Retention_time,[3],12.628 min
same,MIC,Pseudomonas aeruginosa [1],16 µM
same,MIC,[2],4 µM
same,MIC,Escherichia coli,8 µM
same,MIC,Klebsiella pneumoniae,16 µM
same,MIC,Bacillus subtilis,4 µM
same,MIC,Staphylococcus aureus,16 µM
same,MHC10,[4],> 256 µM
O=C(O)c1cn(C2CC2)c2cc(N3CCNCC3)c(F)cc2c1=O [CIPROFLOXACIN],fold change (FC),Pseudomonas aeruginosa [5],>128
same,MIC,Pseudomonas aeruginosa [1],2 µM
same,MIC,[2],8 µM
same,MIC,Escherichia coli,< 1 µM
same,MIC,Klebsiella pneumoniae,8 µM
same,Activity,Cell membrane [6],Active
same,MIC,Bacillus subtilis,2 µM
same,MIC,Staphylococcus aureus,8 µM
NCCCC[C@H](NC(=O)CNC(=O)[C@H]1CCCN1C(=O)[C@H](CCCCN)NC(=O)[C@H](Cc1c[nH]c2ccccc12)NC(=O)[C@H](CCCCN)NC(=O)[C@@H](N)Cc1c[nH]c2ccccc12)C(=O)N[C@@H](Cc1c[nH]c2ccccc12)C(=O)N[C@@H](CCCCN)C(=O)N[C@@H](Cc1c[nH]c2ccccc12)C(N)=O (H-WKWK[dP]GKWKW-NH2),Retention_time,[3],13.817 min
same,MIC,Pseudomonas aeruginosa [1],8 µM
same,MIC,[2],8 µM
same,MIC,Escherichia coli,64 µM
same,MIC,Klebsiella pneumoniae,> 128 µM
same,MIC,Bacillus subtilis,8 µM
same,MIC,Staphylococcus aureus,64 µM
same,MHC10,[4],> 256 µM
CC[C@H](C)[C@H](N)C(=O)N[C@@H](CCCNC(=N)N)C(=O)N[C@H](C(=O)N[C@@H](CCCNC(=N)N)C(=O)N1CCC[C@@H]1C(=O)NCC(=O)N[C@@H](CCCNC(=N)N)C(=O)N[C@H](C(=O)N[C@@H](CCCNC(=N)N)C(=O)N[C@H](C(N)=O)[C@@H](C)CC)[C@@H](C)CC)[C@@H](C)CC,Retention_time,[3],12.103 min
same,MIC,Pseudomonas aeruginosa [1],128 µM
same,MIC,[2],64 µM
same,MIC,Escherichia coli,128 µM
same,MIC,Klebsiella pneumoniae,> 128 µM
same,MIC,Bacillus subtilis,32 µM
same,MIC,Staphylococcus aureus,128 µM
same,MHC10,[4],> 256 µM
NCCCC[C@H](NC(=O)[C@H](Cc1c[nH]c2ccccc12)NC(=O)[C@H](CCCCN)NC(=O)[C@H](Cc1c[nH]c2ccccc12)NC(=O)[C@H](CCCCN)NC(=O)CNC(=O)[C@H]1CCCN1C(=O)[C@H](CCCCN)NC(=O)[C@H](Cc1c[nH]c2ccccc12)NC(=O)[C@H](CCCCN)NC(=O)[C@H](Cc1c[nH]c2ccccc12)NC(=O)[C@@H](N)CCCCN)C(N)=O,Retention_time,[3],12.66 min
same,MIC,Pseudomonas aeruginosa [1],32 µM
same,MIC,[2],4 µM
same,MIC,Escherichia coli,16 µM
same,MIC,Klebsiella pneumoniae,64 µM
same,MIC,Bacillus subtilis,2 µM
same,MIC,Staphylococcus aureus,32 µM
same,MHC10,[4],> 256 µM
CC[C@H](C)[C@H](NC(=O)[C@H](CCCNC(=N)N)NC(=O)[C@@H](NC(=O)[C@H](CCCNC(=N)N)NC(=O)CNC(=O)[C@H]1CCCN1C(=O)[C@H](CCCNC(=N)N)NC(=O)[C@@H](NC(=O)[C@H](CCCNC(=N)N)NC(=O)[C@@H](NC(=O)[C@@H](N)CCCNC(=N)N)[C@@H](C)CC)[C@@H](C)CC)[C@@H](C)CC)C(=O)N[C@@H](CCCNC(=N)N)C(N)=O,Retention_time,[3],11.367 min
same,MIC,Pseudomonas aeruginosa [1],16 µM
same,MIC,[2],8 µM
same,MIC,Escherichia coli,16 µM
same,MIC,Klebsiella pneumoniae,32 µM
same,MIC,Bacillus subtilis,4 µM
same,MIC,Staphylococcus aureus,32 µM
same,MHC10,[4],> 256 µM
CC[C@H](C)[C@H](N)C(=O)N[C@@H](CCCNC(=N)N)C(=O)N[C@H](C(=O)N[C@@H](CCCNC(=N)N)C(=O)N[C@H](C(=O)N[C@@H](CCCNC(=N)N)C(=O)N1CCC[C@@H]1C(=O)NCC(=O)N[C@@H](CCCNC(=N)N)C(=O)N[C@H](C(=O)N[C@@H](CCCNC(=N)N)C(=O)N[C@H](C(=O)N[C@@H](CCCNC(=N)N)C(=O)N[C@H](C(N)=O)[C@@H](C)CC)[C@@H](C)CC)[C@@H](C)CC)[C@@H](C)CC)[C@@H](C)CC,Retention_time,[3],13.442 min
same,MIC,Pseudomonas aeruginosa [1],4 µM
same,"hemolysis at 1 h, 256 µM",[7],4.1%
same,MIC,[2],8 µM
same,MIC,Escherichia coli,16 µM
same,MIC,Klebsiella pneumoniae,16 µM
same,MIC,Bacillus subtilis,2 µM
same,MIC,Staphylococcus aureus,8 µM
same,MHC10,[4],512 µM
CO[C@H]1/C=C/O[C@@]2(C)Oc3c(C)c(O)c4c(O)c(c(/C=N/N5CCN(C)CC5)c(O)c4c3C2=O)NC(=O)/C(C)=C\C=C\[C@H](C)[C@H](O)[C@@H](C)[C@@H](O)[C@@H](C)[C@H](OC(C)=O)[C@@H]1C [RIFAMPIN],MIC,Pseudomonas aeruginosa [1],32 µM
same,MIC,[2],< 1 µM
same,MIC,Escherichia coli,16 µM
same,MIC,Klebsiella pneumoniae,64 µM
same,MIC,Bacillus subtilis,< 1 µM
same,MIC,Staphylococcus aureus,< 1 µM
N=C(N)NCCC[C@H](NC(=O)CNC(=O)[C@H]1CCCN1C(=O)[C@H](CCCNC(=N)N)NC(=O)[C@H](Cc1ccccc1)NC(=O)[C@H](CCCNC(=N)N)NC(=O)[C@@H](N)Cc1ccccc1)C(=O)N[C@@H](Cc1ccccc1)C(=O)N[C@@H](CCCNC(=N)N)C(=O)N[C@@H](Cc1ccccc1)C(N)=O,Retention_time,[3],13.555 min
same,MIC,Pseudomonas aeruginosa [1],4 µM
same,MIC,[2],16 µM
same,MIC,Escherichia coli,64 µM
same,MIC,Klebsiella pneumoniae,> 128 µM
same,MIC,Bacillus subtilis,8 µM
same,MIC,Staphylococcus aureus,32 µM
same,MHC10,[4],> 256 µM
NCCCC[C@H](NC(=O)CNC(=O)[C@H]1CCCN1C(=O)[C@H](CCCCN)NC(=O)[C@H](Cc1c[nH]c2ccccc12)NC(=O)[C@H](CCCCN)NC(=O)[C@H](Cc1c[nH]c2ccccc12)NC(=O)[C@H](CCCCN)NC(=O)[C@@H](N)Cc1c[nH]c2ccccc12)C(=O)N[C@@H](Cc1c[nH]c2ccccc12)C(=O)N[C@@H](CCCCN)C(=O)N[C@@H](Cc1c[nH]c2ccccc12)C(=O)N[C@@H](CCCCN)C(=O)N[C@@H](Cc1c[nH]c2ccccc12)C(N)=O (H-WKWKWK[dP]GKWKWKW-NH2),Retention_time,[3],14.49 min
same,MIC,Pseudomonas aeruginosa [1],4 µM
same,MIC,[2],4 µM
same,MIC,Escherichia coli,8 µM
same,MIC,Klebsiella pneumoniae,16 µM
same,MIC,Bacillus subtilis,2 µM
same,MIC,Staphylococcus aureus,8 µM
same,MHC10,[4],> 256 µM
NC[C@H]1O[C@H](O[C@H]2[C@H](O)[C@@H](O[C@H]3O[C@H](CO)[C@@H](O)[C@H](N)[C@H]3O)[C@H](N)C[C@@H]2N)[C@H](O)[C@@H](O)[C@@H]1O [KANAMYCIN],MIC,Pseudomonas aeruginosa [1],> 128 µM
same,MIC,[2],> 128 µM
same,MIC,Escherichia coli,8 µM
same,MIC,Klebsiella pneumoniae,64 µM
same,MIC,Bacillus subtilis,< 1 µM
same,MIC,Staphylococcus aureus,< 1 µM
CC(C)[C@@H]1NC(=O)[C@H](C)OC(=O)[C@@H](C(C)C)NC(=O)[C@@H](C(C)C)OC(=O)[C@H](C(C)C)NC(=O)[C@H](C)OC(=O)[C@@H](C(C)C)NC(=O)[C@@H](C(C)C)OC(=O)[C@H](C(C)C)NC(=O)[C@H](C)OC(=O)[C@@H](C(C)C)NC(=O)[C@@H](C(C)C)OC1=O,Activity,Cell membrane [8],Active
C[C@@H](O)[C@H]1C(=O)N2C(C(=O)O)=C(SCCNC=N)C[C@H]12 [IMIPENEM ANHYDROUS],MIC,Pseudomonas aeruginosa [1],16 µM
same,MIC,[2],< 1 µM
same,MIC,Escherichia coli,< 1 µM
same,MIC,Klebsiella pneumoniae,< 1 µM
same,MIC,Bacillus subtilis,< 1 µM
same,MIC,Staphylococcus aureus,< 1 µM
